The subject of assay [1] is MDA-MB-231. Kind of assay: Antiproliferative activity against human MDA-MB-231 cells assessed as reduction in cell viability after 24 hrs by MTT assay. The assay is classed as functional, cell-based. For orientation: Tetrazolium dyes change colour on reduction, which living cells bring about.
Assay [2] relates to Mus musculus. In words: Effect on RAF expression in athymic BALB/c nude mouse xenografted with human MDA-MB-231 cells at 1.25 to 5 mg/kg, sc administered every two days for 28 days by Western blot analysis. Format: functional, organism-based. A general note: In xenograft studies the graft and the host belong to different species.
The test system of assay [3] is MDA-MB-231. In words: Induction of apoptosis in human MDA-MB-231 cells assessed as increase in late apoptotic cells at 20 to 40 ug/ml after 24 hrs by Annexin-V-FITC/propidium iodide staining based FACS analysis. Format: functional, cell-based. A general note: In flow cytometry, cells or beads pass a laser one at a time.
Assay [4] has as its system Mus musculus. Kind of assay: Effect on MEK phosphorylation in athymic BALB/c nude mouse xenografted with human MDA-MB-231 cells at 1.25 to 5 mg/kg, sc administered every two days for 28 days by western blot analysis. Format: functional, organism-based.
The subject of assay [5] is MDA-MB-231. Kind of assay: Induction of apoptosis in human MDA-MB-231 cells assessed as early apoptotic cells at 80 ug/ml after 24 hrs by Annexin-V-FITC/propidium iodide staining based FACS analysis relative to control. The assay is classed as functional.
In assay [6] the test system is Mus musculus. In words: Down regulation of PI3K expression athymic BALB/c nude mouse xenografted with human MDA-MB-231 cells at 1.25 to 5 mg/kg, sc administered every two days for 28 days by Western blot analysis. The assay is classed as functional, organism-based.
Assay [7] relates to Mus musculus. Kind of assay: Increase in ERK expression in athymic BALB/c nude mouse xenografted with human MDA-MB-231 cells at 1.25 to 5 mg/kg, sc administered every two days for 28 days by Western blot analysis. Format: functional, organism-based.
In assay [8] the test system is Mus musculus. In words: Effect on MEK expression in athymic BALB/c nude mouse xenografted with human MDA-MB-231 cells at 1.25 to 5 mg/kg, sc administered every two days for 28 days by western blot analysis. The assay is classed as functional, organism-based.
Assay [9] deals with Mus musculus. In words: Down regulation of mTOR expression in athymic BALB/c nude mouse xenografted with human MDA-MB-231 cells at 1.25 to 5 mg/kg, sc administered every two days for 28 days by Western blot analysis. Format: functional, organism-based.
Assay [10] relates to Epidermal growth factor receptor (Homo sapiens), P00533 [L858R]. In words: Inhibition of EGFR L858R mutant (unknown origin) using polyE4Y1 as substrate measured after 60 mins.
Assay [11] relates to MDA-MB-231. In words: Induction of apoptosis in human MDA-MB-231 cells assessed as down regulation of PARP1 expression by Western blot analysis. The assay is classed as functional, cell-based.
The test system of assay [12] is MDA-MB-231. In words: Induction of apoptosis in human MDA-MB-231 cells assessed as increase in cleaved caspase 3 expression at 20 to 80 ug/ml by Western blot analysis. Format: functional, cell-based.
Assay [13] deals with Mus musculus. In words: Down regulation of RAS expression in athymic BALB/c nude mouse xenografted with human MDA-MB-231 cells at 1.25 to 5 mg/kg, sc administered every two days for 28 days by Western blot analysis. The assay is classed as functional, organism-based.
Assay [14] concerns Mus musculus. In words: Induction of ERK phosphorylation in athymic BALB/c nude mouse xenografted with human MDA-MB-231 cells at 1.25 to 5 mg/kg, sc administered every two days for 28 days by Western blot analysis. The assay is classed as functional, organism-based.
In assay [15] the test system is Mus musculus. In words: Down regulation of AKT phosphorylation in athymic BALB/c nude mouse xenografted with human MDA-MB-231 cells at 1.25 to 5 mg/kg, sc administered every two days for 28 days by Western blot analysis. Format: functional, organism-based.
The test system of assay [16] is MDA-MB-231. In words: Induction of apoptosis in human MDA-MB-231 cells assessed as increase in apoptotic cells after 24 hrs in presence of lapatinib by Annexin-V-FITC/propidium iodide staining based FACS analysis. The assay is classed as functional, cell-based.
In assay [17] the test system is MDA-MB-231. Kind of assay: Induction of apoptosis in human MDA-MB-231 cells assessed as increase in apoptotic cells after 24 hrs in presence of EGFR siRNA by Annexin-V-FITC/propidium iodide staining based FACS analysis. Format: functional, cell-based.
Assay [18] concerns MDA-MB-231. In words: Antitumor activity against human MDA-MB-231 cells xenografted in athymic BALB/c nude mouse assessed as decrease in tumor volume at 1.25 to 5 mg/kg, […] administered every two days for 28 days measured post-last dose by caliper method. Format: functional, organism-based.
Assay [19] has as its target Epidermal growth factor receptor (Homo sapiens) (UniProt P00533). In words: Inhibition of EGFR phosphorylation in human MDA-MB-231 cells by Western blot analysis. Format: cell-based.

Calls of active or inactive are those of the source. No cut-off for these calls is given here.

Epidermal growth factor receptor (Homo sapiens), sequence (P00533 whole entry): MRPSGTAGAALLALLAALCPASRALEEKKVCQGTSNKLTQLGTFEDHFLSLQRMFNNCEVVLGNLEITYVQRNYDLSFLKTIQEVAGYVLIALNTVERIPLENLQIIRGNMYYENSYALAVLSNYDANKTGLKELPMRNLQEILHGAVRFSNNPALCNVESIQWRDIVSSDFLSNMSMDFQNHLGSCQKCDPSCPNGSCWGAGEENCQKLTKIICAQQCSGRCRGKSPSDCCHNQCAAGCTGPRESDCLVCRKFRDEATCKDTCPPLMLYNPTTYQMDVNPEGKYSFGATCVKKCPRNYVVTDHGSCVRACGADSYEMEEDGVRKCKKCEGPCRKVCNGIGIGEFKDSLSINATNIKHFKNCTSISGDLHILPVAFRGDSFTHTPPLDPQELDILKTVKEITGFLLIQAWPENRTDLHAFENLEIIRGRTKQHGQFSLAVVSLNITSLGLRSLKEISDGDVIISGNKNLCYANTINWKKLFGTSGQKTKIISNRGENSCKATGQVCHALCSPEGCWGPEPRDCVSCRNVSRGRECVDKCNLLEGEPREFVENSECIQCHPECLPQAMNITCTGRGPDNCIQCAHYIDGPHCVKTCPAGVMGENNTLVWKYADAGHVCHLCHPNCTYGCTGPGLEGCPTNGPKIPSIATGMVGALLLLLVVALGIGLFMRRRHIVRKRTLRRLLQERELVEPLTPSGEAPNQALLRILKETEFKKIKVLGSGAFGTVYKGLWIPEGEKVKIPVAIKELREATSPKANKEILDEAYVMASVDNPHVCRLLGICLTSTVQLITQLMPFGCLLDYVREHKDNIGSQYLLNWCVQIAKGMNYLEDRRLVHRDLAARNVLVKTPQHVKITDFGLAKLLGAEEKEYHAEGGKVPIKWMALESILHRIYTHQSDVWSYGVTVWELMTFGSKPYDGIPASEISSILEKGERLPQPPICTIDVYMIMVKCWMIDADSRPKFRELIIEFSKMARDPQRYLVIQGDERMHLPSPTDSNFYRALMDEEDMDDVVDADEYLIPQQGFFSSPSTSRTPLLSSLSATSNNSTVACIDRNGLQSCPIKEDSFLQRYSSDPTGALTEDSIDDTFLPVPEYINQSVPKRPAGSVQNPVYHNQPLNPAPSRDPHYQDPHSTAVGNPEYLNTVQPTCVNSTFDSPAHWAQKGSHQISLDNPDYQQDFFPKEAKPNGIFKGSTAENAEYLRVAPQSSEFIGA
Epidermal growth factor receptor (Homo sapiens), P00533 [L858R], sequence (P00533 whole entry L858R): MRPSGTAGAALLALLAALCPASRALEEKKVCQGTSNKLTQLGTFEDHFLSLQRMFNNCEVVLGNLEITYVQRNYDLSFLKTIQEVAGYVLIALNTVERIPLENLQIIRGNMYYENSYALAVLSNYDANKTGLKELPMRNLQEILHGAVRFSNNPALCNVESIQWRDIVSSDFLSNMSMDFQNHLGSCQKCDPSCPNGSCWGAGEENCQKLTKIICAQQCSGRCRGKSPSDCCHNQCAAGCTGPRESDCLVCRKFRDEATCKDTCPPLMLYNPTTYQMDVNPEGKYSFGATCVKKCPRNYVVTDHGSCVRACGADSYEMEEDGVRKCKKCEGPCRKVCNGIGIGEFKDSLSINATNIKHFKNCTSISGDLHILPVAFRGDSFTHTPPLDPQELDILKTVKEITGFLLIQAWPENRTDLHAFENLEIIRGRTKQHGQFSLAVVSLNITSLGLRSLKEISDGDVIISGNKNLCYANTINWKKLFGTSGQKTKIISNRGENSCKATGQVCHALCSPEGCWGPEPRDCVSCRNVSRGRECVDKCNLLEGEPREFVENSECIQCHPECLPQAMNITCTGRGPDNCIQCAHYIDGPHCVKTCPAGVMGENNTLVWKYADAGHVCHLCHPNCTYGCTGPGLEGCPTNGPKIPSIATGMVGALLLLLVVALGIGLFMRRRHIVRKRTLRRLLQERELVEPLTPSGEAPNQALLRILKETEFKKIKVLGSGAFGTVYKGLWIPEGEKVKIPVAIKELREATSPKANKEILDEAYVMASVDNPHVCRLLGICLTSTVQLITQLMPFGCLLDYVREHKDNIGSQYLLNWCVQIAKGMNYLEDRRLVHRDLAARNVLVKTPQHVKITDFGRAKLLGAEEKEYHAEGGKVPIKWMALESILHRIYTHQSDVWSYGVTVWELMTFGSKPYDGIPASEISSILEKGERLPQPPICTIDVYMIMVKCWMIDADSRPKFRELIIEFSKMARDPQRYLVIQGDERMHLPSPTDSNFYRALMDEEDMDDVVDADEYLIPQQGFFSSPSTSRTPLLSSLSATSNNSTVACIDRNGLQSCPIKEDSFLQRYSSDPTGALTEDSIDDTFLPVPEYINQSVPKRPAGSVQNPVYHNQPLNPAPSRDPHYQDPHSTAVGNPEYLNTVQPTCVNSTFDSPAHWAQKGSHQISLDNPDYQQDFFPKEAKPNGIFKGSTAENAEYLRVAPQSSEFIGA

With `C[C@H]1[C@H](C)CC[C@]2(C(=O)O)CC[C@]3(COC(=O)/C=C/c4ccc(O)cc4)C(=CC[C@@H]4[C@@]5(C)CC[C@H](O)C(C)(C)[C@@H]5CC[C@]43C)[C@H]12`, the results for the Activity result with MDA-MB-231 [1], in the assay with MDA-MB-231 [5] and with MDA-MB-231 [11] were “Dose-dependent effect”, 42.03% and “Dose-dependent effect”, respectively. For the same compound, the result in the assay with Mus musculus [2], with Mus musculus [4], in the assay on Mus musculus [8], in the assay on MDA-MB-231 [16] and with MDA-MB-231 [17] was inactive. In addition, the outcome in the assay on MDA-MB-231 [3], in the assay on Mus musculus [6], in the assay with Mus musculus [7], in the assay on Mus musculus [9], with MDA-MB-231 [12] and in the assay on Mus musculus [13] was Active. Moreover, the result in the assay with Mus musculus [14], in the assay on Mus musculus [15] and in the assay on MDA-MB-231 [18] was Active. In addition, in [10], the inhibition entry is “Dose-dependent effect”. Moreover, the inhibition result in assay [19] was “Active”.
